Structures can show the parent of a compound that is named as a salt.
target: (Homo sapiens, UniProt P07996); test: ELISA based assays of TSP1 activation of latent TGF-β (purified protein components or TSP1-treated cell conditioned media); type: biochemical; parameters: purchased R&D Systems; details: at 1 pm
Protocol: Compound 35 was evaluated for its ability to inhibit TGF-β in both ELISA based assays with purified protein components (latent TGFβ and TSP1 or in TSP1-treated cell conditioned media).
Target sequence in this assay (P07996 19-1170): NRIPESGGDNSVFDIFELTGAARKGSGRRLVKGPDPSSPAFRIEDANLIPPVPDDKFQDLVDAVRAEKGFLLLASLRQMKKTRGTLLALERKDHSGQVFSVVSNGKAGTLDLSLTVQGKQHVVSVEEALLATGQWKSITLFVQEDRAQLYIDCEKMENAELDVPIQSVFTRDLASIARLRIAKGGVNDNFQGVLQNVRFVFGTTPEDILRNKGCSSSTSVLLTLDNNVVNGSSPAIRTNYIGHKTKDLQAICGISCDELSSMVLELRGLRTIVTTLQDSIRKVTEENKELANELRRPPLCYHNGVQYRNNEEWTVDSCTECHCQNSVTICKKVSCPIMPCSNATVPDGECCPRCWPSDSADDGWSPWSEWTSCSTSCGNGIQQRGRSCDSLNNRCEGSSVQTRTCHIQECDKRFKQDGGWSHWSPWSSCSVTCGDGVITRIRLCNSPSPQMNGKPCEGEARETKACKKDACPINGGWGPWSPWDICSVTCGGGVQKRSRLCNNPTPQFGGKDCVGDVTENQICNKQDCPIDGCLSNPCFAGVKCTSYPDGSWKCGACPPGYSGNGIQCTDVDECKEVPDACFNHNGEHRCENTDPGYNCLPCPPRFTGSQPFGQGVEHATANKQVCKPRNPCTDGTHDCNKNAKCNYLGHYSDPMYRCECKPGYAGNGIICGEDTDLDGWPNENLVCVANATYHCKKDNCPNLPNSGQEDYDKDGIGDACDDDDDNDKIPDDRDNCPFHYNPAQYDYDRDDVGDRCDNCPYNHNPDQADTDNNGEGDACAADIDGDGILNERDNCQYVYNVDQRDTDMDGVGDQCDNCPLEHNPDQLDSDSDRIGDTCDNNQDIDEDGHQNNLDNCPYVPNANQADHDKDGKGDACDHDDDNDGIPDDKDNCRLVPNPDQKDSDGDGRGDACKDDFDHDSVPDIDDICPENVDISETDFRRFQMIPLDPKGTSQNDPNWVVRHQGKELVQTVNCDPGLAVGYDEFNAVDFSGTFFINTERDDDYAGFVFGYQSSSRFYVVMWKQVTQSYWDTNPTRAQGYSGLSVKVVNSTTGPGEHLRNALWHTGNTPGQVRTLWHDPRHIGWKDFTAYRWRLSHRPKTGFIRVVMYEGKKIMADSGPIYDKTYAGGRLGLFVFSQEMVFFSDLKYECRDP
(§1) For initial screening, an ELISA-based screening assay was used in which purified human platelet TSP-1 was incubated with compounds and then incubated with recombinant latent TGF-β1 (purchased from R&D Systems). Activity is measured in a commercially available ELISA which detects only active TGF-β (R &D Systems). Activity in the presence of compounds is compared to activity in TSP-1+latent TGF-β samples without inhibitory compounds (Lu et al. (2016) Am J Pathol 186:678-690).

inhibition of TGF-β | Compound
15% | CC(=O)N[C@@H](CCCCN)c1nnc(-c2ccccc2)s1 [Compound 35, (S)—N-(5-amino-1-(5-phenyl-1,3,4-thiadiazol-2-yl)pentyl)acetamide]

same assay, conditions: at 50 pm

inhibition of TGF-β | Compound
67% | CC(=O)N[C@@H](CCCCN)c1nnc(-c2ccccc2)s1 [Compound 35, (S)—N-(5-amino-1-(5-phenyl-1,3,4-thiadiazol-2-yl)pentyl)acetamide]

same assay, conditions: at 100 pm

inhibition of TGF-β | Compound
67% | CC(=O)N[C@@H](CCCCN)c1nnc(-c2ccccc2)s1 [Compound 35, (S)—N-(5-amino-1-(5-phenyl-1,3,4-thiadiazol-2-yl)pentyl)acetamide]

target: (Homo sapiens, UniProt P07996); test: Secondary Assay, inhibitory activity of thiadiazole and oxadiazole analogs as TGF-beta inhibitors; type: biochemical; details: Table I
Protocol: A summary of the inhibitory activity of representative thiadiazole analogs (Tables i and ii) and oxadiazole analogs (Table ii) is shown below.
as §1
To specifically assess activity of compounds in liver cell specific assays, two different assays were used. In the first, human hepatic stellate cells were incubated overnight in low serum media to condition the media with secreted latent TGF-β. Purified TSP1 either pre-incubated with compounds or not will be added to cultures and then conditioned media harvested to assess TGF-β biological activity using the R&D Systems ELISA as above. Hepatic stellate cells will be purchased from commercial sources. Although hepatic stellate cells are the primary drivers of liver fibrosis, conditions which drive liver fibrosis can induce hepatocyte TSP-1 expression which can then have paracrine effects on controlling TGF-β activation in hepatic stellate cells. Furthermore, TGF-β can negatively impact hepatocyte regeneration following injury. Therefore, the ability of compounds to block TSP-1 activation of latent TGF-β will also be assessed in cultured primary human hepatocytes following the protocol described for the hepatic stellate cells. Similar approaches have successfully been used to screen compounds which inhibit human myeloma cell derived latent TGF-β activation by TSP-1 (Lu et al. (2016) Am J Pathol 186:678-690).
Target sequence in this assay (P07996 whole entry): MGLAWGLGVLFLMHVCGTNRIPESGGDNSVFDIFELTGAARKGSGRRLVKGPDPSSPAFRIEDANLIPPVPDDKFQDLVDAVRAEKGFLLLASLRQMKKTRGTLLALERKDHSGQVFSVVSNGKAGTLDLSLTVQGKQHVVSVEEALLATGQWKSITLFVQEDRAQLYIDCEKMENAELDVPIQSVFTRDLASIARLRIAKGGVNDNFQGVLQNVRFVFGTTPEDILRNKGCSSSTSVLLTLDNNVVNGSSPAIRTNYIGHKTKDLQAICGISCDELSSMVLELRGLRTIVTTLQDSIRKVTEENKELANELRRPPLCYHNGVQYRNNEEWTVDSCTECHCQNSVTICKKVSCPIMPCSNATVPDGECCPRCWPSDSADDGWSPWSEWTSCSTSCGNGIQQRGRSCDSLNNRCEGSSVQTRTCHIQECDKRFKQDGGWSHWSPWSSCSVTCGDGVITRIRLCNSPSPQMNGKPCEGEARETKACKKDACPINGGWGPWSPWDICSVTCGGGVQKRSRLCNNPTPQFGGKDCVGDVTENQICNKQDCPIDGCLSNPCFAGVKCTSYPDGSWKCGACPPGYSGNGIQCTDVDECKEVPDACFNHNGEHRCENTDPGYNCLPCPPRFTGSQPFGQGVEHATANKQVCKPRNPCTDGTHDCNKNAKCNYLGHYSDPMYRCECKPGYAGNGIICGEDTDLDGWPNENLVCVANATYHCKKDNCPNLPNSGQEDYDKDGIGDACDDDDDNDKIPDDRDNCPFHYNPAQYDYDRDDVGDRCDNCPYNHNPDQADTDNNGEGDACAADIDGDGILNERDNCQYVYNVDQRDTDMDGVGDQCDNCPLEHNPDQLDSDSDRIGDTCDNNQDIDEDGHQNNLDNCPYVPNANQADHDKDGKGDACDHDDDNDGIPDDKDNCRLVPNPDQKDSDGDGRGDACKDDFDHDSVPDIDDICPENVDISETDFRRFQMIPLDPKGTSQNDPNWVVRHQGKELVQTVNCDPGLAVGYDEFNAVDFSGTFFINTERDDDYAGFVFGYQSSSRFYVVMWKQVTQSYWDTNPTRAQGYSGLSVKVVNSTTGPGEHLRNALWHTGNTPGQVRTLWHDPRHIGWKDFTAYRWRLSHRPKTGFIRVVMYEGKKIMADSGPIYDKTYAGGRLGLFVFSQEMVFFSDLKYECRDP

IC50 | Compound
0.005 µM | NCc1cccc(CC(NC(=O)C2CCCCC2)c2nnc(-c3cccc(OC(F)(F)F)c3)s2)c1 (centres unmarked) [Compound 42461, N-(2-(3-(aminomethyl)phenyl)-1-(5-(3-(trifluoromethoxy)phenyl)-1,3,4-thiadiazol-2-yl)ethyl)cyclohexanecarboxamide]
0.008 µM | CC(=O)NC(Cc1ccc(CN)cc1)c1nnc(-c2cc(C)cc(OC(F)(F)F)c2)s1 (centres unmarked) [Compound 42470]
0.008 µM | COc1cc(C)cc(-c2nnc(C(Cc3ccc(CN)cc3)NC(C)=O)s2)c1 (centres unmarked) [Compound 42473]
0.0269 µM | CC(=O)N[C@H](Cc1ccc(CN)cc1)c1nnc(-c2cccc(OC(F)(F)F)c2)s1 (single isomer, unassigned) [Compound 41892]
0.03 µM | CC(=O)N(C)C(Cc1ccc(CN)cc1)c1nnc(-c2cccc(OC(F)(F)F)c2)s1 (centres unmarked) [Compound 42335, N-(2-(4-(aminomethyl)phenyl)-1-(5-(3-(trifluoromethoxy)phenyl)-1,3,4-thiadiazol-2-yl)ethyl)-N-methylacetamide Hydrochloride]
0.006 µM | COc1cc(-c2nnc(C(Cc3ccc(CN)cc3)NC(C)=O)s2)cc(C(F)(F)F)c1 (centres unmarked) [Compound 42330, N-(2-(4-(aminomethyl)phenyl)-1-(5-(3-methoxy-5-(trifluoromethyl)phenyl)-1,3,4-thiadiazol-2-yl)ethyl)acetamide]
0.008 µM | NCc1cccc(CC(NC(=O)C2CC2)c2nnc(-c3cccc(OC(F)(F)F)c3)s2)c1 (centres unmarked) [Compound 42468, N-(2-(3-(aminomethyl)phenyl)-1-(5-(3-(trifluoromethoxy)phenyl)-1,3,4-thiadiazol-2-yl)ethyl)cyclopropanecarboxamide]

The remaining lines, values behind:

Compound | IC50
CC(=O)NC(Cc1ccc(CN)cc1)c1nnc(-c2cccc(OC(F)(F)F)c2)s1 (centres unmarked) [Compound 40000, N-(2-(4-(aminomethyl)phenyl)-1-(5-(3-(trifluoromethoxy)phenyl)-1,3,4-thiadiazol-2-yl)ethyl)acetamide] | 0.028 µM
CC(=O)NC(Cc1ccc(CN)cc1)c1nnc(-c2ccc(F)cc2)s1 (centres unmarked) [Compound 40051, N-(2-(4-(aminomethyl)phenyl)-1-(5-(4-fluorophenyl)-1,3,4-thiadiazol-2-yl)ethyl)acetamide] | 0.049 µM
COc1cccc(-c2nnc(C(Cc3ccc(CN)cc3)NC(C)=O)s2)c1 (centres unmarked) [Compound 41149, N-(2-(4-(aminomethyl)phenyl)-1-(5-(3-methoxyphenyl)-1,3,4-thiadiazol-2-yl)ethyl)acetamide hydrochloride] | 0.183 µM
CC(=O)N[C@@H](Cc1ccc(CN)cc1)c1nnc(-c2cccc(OC(F)(F)F)c2)s1 (single isomer, unassigned) [Compound 41891] | 0.026 µM
CC(=O)NC(Cc1ccc(N)cc1)c1nnc(-c2cccc(OC(F)(F)F)c2)s1 (centres unmarked) [Compound 39999, N-(2-(4-aminophenyl)-1-(5-(3-(trifluoromethoxy)phenyl)-1,3,4-thiadiazol-2-yl)ethyl)acetamide] | 0.015 µM
CC(=O)NC(Cc1ccc(CN)cc1)c1nnc(-c2ccncc2)s1 (centres unmarked) [Compound 39245, N-(2-(4-(aminomethyl)phenyl)-1-(5-(pyridin-4-yl)-1,3,4-thiadiazol-2-yl)ethyl)acetamide] | 0.033 µM
CC(=O)NC(Cc1ccc(CN)cc1)c1nnc(-c2cccc(C(F)(F)F)c2)s1 (centres unmarked) [Compound 41152, N-(2-(4-(aminomethyl)phenyl)-1-(5-(3-(trifluoromethyl)phenyl)-1,3,4-thiadiazol-2-yl)ethyl)acetamide hydrochloride] | 0.009 µM
CC(=O)NC(Cc1ccc(CN)cc1)c1nnc(-c2cc(C(F)(F)F)cc(C(F)(F)F)c2)s1 (centres unmarked) [Compound 40653, N-(2-(4-(aminomethyl)phenyl)-1-(5-(3,5-bis(trifluoromethyl)phenyl)-1,3,4-thiadiazol-2-yl)ethyl)acetamide] | 0.039 µM
CC(=O)NC(Cc1ccc(CN)cc1)c1nnc(-c2cccc(OC(F)(F)F)c2)s1 (racemic) [Compound 41791] | 0.061 µM

same assay, conditions: Table II

IC50 | Compound
0.324 µM | CC(=O)NC(CCCCN)c1nnc(-c2ccc(F)cc2)s1 (centres unmarked) [Compound 39261, N-(5-Amino-1-(5-(4-fluorophenyl)-1,3,4-thiadiazol-2-yl)pentyl)acetamide]
0.013 µM | CC(=O)NC(CCCCN)c1nnc(C2CCCCC2)s1 (centres unmarked) [Compound 39139, N-(5-Amino-1-(5-cyclohexyl-1,3,4-thiadiazol-2-yl)pentyl)acetamide]

same assay, conditions: Table II, cells that print μM

IC50 | Compound
> 1 µM | CC(=O)NC(CCCCN)c1nnc(-c2ccncc2)o1 (centres unmarked) [Compound 40074, N-(5-Amino-1-(5-(pyridin-4-yl)-1,3,4-oxadiazol-2-yl)pentyl)acetamide]
> 1 µM | CC(=O)NC(CCCCN)c1nnc(-c2ccc(F)cc2F)s1 (centres unmarked) [Compound 39425, N-(5-Amino-1-(5-(2,4-difluorophenyl)-1,3,4-thiadiazol-2-yl)pentyl)acetamide]

From patent US11033535B2, “Oxadiazoles and thiadiazoles as TGF-β inhibitors” (Southern Research Institute, priority 2017, dated 2021)
